A short description of data set [1]: Gelation after GSH addition, vial inversion method. In kind it is physicochemical. The protocol: Therefore, rheological measurement of the hydrogel was carried out.
5.0 mg of Rhodamine-GFFYE-CS-EE and 3 equiv. of Na2CO3 (in order to adjust the pH value of the final solution) were dissolved in 1.0 mL of PBS buffer (pH 7.4), and then 4 equiv. of reduced glutathione (GSH) was added to the solution. After about 20 minutes at room temperature, the self-supporting hydrogel was formed. Moreover, after dilution of the hydrogel with aqueous solution, the fluorescent nanofiber suspension was obtained.

The next data set concerns HeLa cancer cells. The experiment in a line: Cellular uptake and imaging by CLSM. In kind it is cell-based, Human. The note with it: Rhodamine B concentration 100 μM, 2 h, FBS-free DMEM, excitation 543 nm. The protocol:
The HeLa cancer cells were cultured in confocal imaging chambers (LAB-TEK, Chambered Coverglass System) at 37 °C. After 80% confluence, the medium was removed and the adherent cells were washed twice with 1 × PBS buffer. The nanofiber and precursor in FBS-free DMEM medium at the Rhodamine B concentration of 100 μM were then added to the chamber, respectively. After incubation for 2 h, the cells were washed with 1 × PBS buffer and then imaged with confocal laser scanning microscope (CLSM, Zeiss LSM 410, Jena, Germany). The fluorescent signal from the Rhodamine B was collected upon excitation at 543 nm with a 560 nm longpass barrier filter. The HepG2 cancer cellular imaging was performed following the same experimental procedures.

The subject of data set [2] is 4T1 tumor-bearing mice. Nature of the data set: Fluorescence imaging in tissue slices (CLSM). The format is in vivo, BALB/c mice. The note with it: intravenous, 0.1 mL of 100 μM, 0.5 h post-injection; vessels immunostained with PECAM-1. How it is done: At 0.5 h post administration of 0.1 mL of fluorescent nanofiber and precursor (100 μM), respectively, the mice were sacrificed. Subsequently, the tumor tissues were dissected, fixed in 4% paraformaldehyde for 2 h, incubated in 20% sucrose/PBS overnight and embedded in Optimal Cutting Temperature (OCT) compound (Tissue-Tek). Sections (6 μm) were immunostained with monoclonal antibody against platelet/endothelial cell adhesion molecule 1 (PECAM-1; PharMingen). Alexa Fluor 633-conjugated antirabbit antibody was used as secondary antibody (Molecular Probes). The cell nuclei were stained with DAPI. The tumor slices were imaged by CLSM with excitation wavelength at 405 nm, 543 nm, and 633 nm for DAPI, Rhodamine B, and PECAM-1, respectively. Furthermore, at 24 h post administration of nanofiber and precursor, respectively, the slices of various tissues including tumor, intestine, liver, spleen, kidney, and heart were obtained following the aforementioned experimental procedures. After that, the cell nuclei in the tissue slices were stained with DAPI, which was followed by imaging with CLSM.

Data set [3] has as its system 4T1 tumor-bearing mice. The experiment in a line: Ex vivo fluorescence imaging of tumor and organs (Maestro system). Particulars: intravenous, 0.1 mL of 100 μM, 24 h post-injection; excitation 523 nm.
Protocol: Eight-week-old BALB/c mice were purchase from the Laboratory Animal Center of the Academy of Military Medical Sciences (Beijing, China). To establish tumor-bearing mouse model, a 4T1 cancer cell suspension containing 5 × 10^5 cells (50 μL) was injected subcutaneously into the mice at the right axillae.
4T1 tumor-bearing mice were intravenously administrated with 0.1 mL of fluorescent nanofiber or precursor (100 μM). At 24 h post-injection, the mice were sacrificed, the tissues including liver, kidney, spleen, intestine, heart, lung, stomach, skin, muscle and tumor were excised and imaged using the Maestro system (CRi, Inc., Woburn, USA). Light with a central wavelength of 523 nm was selected as the excitation source. Spectral imaging from 560 to 900 nm with 10 nm steps was carried out with an exposure time of 150 ms.
The subject of the next data set is living cells. The note with it: cited from earlier work. The protocol:
Long-term cell tracking have recently attracted intensive research interest, as it can provide meritorious information on cell therapy and its processes, as well as on studying the mechanism of cancer pathogenesis, invasion and metastasis. Consequently, the application of the fluorescent nanofibrous hydrogel in long-term cell tracking was investigated. The HeLa cancer cells were incubated with the nanofiber suspension for 4 h at 37 °C. Subsequently, the nanofiber-labeled cells were subcultured for designated time intervals, followed by imaging with CLSM.

Consider Rhodamine-GFFYE-CS-EE [precursor], for which the “time of gelation process after addition of GSH” value in data set [1] (37 °C) is “around 30 min”. For the same compound, in data set [1] (room temperature), the “time to hydrogel formation after addition of GSH” value stood at 2 h. Moreover, the “cellular uptake / spatial distribution in cells” value in the data set on HeLa cancer cells is reported as “internalized in the cell cytoplasm”. Besides, the “red fluorescence in tumor slices (tumor accumulation)” value in the data set on 4T1 tumor-bearing mice [2] is listed as “negligible red fluorescence”. The “ex vivo fluorescence signal in tumor” value with 4T1 tumor-bearing mice [3] was “far weaker”.

On to `CC(=O)Oc1ccc2c(c1)Oc1cc(OC(C)=O)ccc1C21OC(=O)c2cc(CCl)ccc21` [CellTrackerTM Green CMFDA], for which the “number of passages over which living cells can be traced” value in the data set on living cells is given as “no more than 3 passages”.

The record behind these values is PMC4647837, “Biocompatible fluorescent supramolecular nanofibrous hydrogel for long-term cell tracking and tumor imaging applications” (Scientific Reports, 2015).
